Key:
Details in all cases: 0.1 µM; binder
LZK = LZK (Homo sapiens, UniProt O43283)
PKAC-beta = PKAC-beta (Homo sapiens, UniProt P22694)
RIPK1 = RIPK1 (Homo sapiens, UniProt Q13546)
NIK = NIK (Homo sapiens, UniProt Q99558)
ICK = ICK (Homo sapiens, UniProt Q9UPZ9)
TIE2 = TIE2 (Homo sapiens, UniProt Q02763)
PKN1 = PKN1 (Homo sapiens, UniProt Q16512)
STK39 = STK39 (Homo sapiens, UniProt Q9UEW8)
PNCK = PNCK (Homo sapiens, UniProt Q6P2M8)
PIK4CB = PIK4CB (Homo sapiens, UniProt Q9UBF8)
SRPK1 = SRPK1 (Homo sapiens, UniProt Q96SB4)
DAPK2 = DAPK2 (Homo sapiens, UniProt Q9UIK4)
MINK = MINK (Homo sapiens, UniProt Q8N4C8)
MST1R = MST1R (Homo sapiens, UniProt Q04912)
PRKCQ = PRKCQ (Homo sapiens, UniProt Q04759)
TNK2 = TNK2 (Homo sapiens, UniProt Q07912)
Sequence of TNK2 (Q07912 whole entry): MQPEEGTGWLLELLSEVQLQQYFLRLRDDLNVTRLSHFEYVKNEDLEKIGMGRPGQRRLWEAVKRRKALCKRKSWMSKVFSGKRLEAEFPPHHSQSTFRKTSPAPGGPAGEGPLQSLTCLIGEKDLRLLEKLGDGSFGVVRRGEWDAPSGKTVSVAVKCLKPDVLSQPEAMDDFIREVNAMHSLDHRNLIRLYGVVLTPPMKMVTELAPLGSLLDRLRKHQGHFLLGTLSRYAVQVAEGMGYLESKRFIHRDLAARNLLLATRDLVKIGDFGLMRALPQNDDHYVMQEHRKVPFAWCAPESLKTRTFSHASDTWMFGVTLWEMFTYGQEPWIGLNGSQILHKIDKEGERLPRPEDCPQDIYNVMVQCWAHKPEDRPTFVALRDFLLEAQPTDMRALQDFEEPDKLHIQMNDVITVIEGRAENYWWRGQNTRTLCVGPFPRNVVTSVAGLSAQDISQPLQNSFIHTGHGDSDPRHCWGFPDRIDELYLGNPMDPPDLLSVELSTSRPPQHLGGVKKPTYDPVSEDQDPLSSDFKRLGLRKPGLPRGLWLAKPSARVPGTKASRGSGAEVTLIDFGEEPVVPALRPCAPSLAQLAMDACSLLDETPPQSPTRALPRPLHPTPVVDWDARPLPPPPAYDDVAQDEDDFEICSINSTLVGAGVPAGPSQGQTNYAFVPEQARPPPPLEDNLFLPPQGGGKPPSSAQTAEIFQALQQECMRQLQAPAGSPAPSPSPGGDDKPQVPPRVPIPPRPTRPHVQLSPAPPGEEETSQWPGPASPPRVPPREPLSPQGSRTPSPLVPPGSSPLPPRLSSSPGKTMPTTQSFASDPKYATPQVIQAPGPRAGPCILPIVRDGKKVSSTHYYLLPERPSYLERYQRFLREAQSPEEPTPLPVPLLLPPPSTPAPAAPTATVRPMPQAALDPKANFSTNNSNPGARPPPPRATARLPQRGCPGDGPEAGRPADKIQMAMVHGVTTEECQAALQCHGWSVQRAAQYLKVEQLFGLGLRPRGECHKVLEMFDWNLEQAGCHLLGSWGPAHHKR

ACVR2B = ACVR2B (Homo sapiens, UniProt Q13705)
ERBB2 = ERBB2 (Homo sapiens, UniProt P04626)
ERN1 = ERN1 (Homo sapiens, UniProt O75460)
AURKB = AURKB (Homo sapiens, UniProt Q96GD4)
MELK = MELK (Homo sapiens, UniProt Q14680)
IKK-beta = IKK-beta (Homo sapiens, UniProt O14920)
EPHA3 = EPHA3 (Homo sapiens, UniProt P29320)
CSNK1G2 = CSNK1G2 (Homo sapiens, UniProt P78368)
FLT3(K663Q) = FLT3(K663Q) (Homo sapiens, UniProt P36888, K663Q)
IGF1R = IGF1R (Homo sapiens, UniProt P08069)
EPHB3 = EPHB3 (Homo sapiens, UniProt P54753)
BMPR2 = BMPR2 (Homo sapiens, UniProt Q13873)
Sequence of BMPR2 (Q13873 whole entry): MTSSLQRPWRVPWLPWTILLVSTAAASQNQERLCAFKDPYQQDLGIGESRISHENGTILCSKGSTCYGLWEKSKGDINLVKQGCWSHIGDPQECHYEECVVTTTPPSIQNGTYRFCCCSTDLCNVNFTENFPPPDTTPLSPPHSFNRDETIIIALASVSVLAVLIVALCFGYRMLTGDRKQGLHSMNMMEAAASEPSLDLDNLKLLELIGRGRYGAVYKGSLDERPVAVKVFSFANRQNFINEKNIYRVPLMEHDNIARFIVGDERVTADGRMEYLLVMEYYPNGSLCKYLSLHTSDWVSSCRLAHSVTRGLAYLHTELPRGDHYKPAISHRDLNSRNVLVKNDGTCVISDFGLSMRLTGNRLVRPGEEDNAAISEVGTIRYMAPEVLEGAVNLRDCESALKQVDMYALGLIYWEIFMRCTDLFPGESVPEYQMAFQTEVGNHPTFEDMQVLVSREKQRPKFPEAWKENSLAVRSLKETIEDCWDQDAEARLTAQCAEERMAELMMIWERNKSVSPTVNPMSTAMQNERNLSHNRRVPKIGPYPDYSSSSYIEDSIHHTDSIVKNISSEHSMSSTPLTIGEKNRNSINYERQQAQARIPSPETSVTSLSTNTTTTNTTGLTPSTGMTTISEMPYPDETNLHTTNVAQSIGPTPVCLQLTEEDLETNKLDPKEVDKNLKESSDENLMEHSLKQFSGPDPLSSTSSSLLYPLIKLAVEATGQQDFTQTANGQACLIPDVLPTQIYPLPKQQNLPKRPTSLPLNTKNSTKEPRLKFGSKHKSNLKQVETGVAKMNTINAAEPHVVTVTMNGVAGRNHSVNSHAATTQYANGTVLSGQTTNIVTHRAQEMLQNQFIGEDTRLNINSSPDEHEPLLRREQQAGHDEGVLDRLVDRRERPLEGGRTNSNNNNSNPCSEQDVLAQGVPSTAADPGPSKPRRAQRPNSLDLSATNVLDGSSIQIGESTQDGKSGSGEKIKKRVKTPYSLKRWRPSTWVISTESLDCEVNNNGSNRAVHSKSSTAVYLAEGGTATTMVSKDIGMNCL

DMPK = DMPK (Homo sapiens, UniProt Q09013)
TRKB = TRKB (Homo sapiens, UniProt Q16620)
PIM3 = PIM3 (Homo sapiens, UniProt Q86V86)
EPHA2 = EPHA2 (Homo sapiens, UniProt P29317)
Sequence of EPHA2 (P29317 whole entry): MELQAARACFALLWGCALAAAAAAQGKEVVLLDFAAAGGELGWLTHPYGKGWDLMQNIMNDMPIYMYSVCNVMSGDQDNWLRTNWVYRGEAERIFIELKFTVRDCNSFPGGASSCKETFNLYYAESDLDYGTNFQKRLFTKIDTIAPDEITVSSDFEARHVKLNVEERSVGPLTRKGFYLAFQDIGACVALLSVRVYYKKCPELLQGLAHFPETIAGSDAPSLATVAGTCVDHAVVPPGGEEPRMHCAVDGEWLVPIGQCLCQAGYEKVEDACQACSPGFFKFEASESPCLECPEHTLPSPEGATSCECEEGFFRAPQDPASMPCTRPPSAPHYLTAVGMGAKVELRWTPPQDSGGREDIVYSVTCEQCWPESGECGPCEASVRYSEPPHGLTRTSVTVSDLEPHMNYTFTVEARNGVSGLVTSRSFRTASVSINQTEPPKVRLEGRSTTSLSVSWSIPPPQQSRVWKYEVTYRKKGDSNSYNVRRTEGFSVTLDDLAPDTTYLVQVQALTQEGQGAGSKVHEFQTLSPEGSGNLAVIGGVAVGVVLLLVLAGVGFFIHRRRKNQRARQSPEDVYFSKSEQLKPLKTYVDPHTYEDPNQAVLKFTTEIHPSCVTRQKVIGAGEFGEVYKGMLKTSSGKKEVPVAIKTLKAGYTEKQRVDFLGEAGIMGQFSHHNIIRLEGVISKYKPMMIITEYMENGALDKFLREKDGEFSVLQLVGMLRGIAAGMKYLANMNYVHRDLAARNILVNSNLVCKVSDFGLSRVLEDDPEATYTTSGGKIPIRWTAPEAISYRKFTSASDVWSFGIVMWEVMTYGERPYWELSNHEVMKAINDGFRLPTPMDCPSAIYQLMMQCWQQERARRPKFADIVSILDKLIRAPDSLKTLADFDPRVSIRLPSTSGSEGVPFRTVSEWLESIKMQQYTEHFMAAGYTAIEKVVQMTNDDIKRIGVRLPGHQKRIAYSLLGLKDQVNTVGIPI

Sequence of NIK (Q99558 whole entry): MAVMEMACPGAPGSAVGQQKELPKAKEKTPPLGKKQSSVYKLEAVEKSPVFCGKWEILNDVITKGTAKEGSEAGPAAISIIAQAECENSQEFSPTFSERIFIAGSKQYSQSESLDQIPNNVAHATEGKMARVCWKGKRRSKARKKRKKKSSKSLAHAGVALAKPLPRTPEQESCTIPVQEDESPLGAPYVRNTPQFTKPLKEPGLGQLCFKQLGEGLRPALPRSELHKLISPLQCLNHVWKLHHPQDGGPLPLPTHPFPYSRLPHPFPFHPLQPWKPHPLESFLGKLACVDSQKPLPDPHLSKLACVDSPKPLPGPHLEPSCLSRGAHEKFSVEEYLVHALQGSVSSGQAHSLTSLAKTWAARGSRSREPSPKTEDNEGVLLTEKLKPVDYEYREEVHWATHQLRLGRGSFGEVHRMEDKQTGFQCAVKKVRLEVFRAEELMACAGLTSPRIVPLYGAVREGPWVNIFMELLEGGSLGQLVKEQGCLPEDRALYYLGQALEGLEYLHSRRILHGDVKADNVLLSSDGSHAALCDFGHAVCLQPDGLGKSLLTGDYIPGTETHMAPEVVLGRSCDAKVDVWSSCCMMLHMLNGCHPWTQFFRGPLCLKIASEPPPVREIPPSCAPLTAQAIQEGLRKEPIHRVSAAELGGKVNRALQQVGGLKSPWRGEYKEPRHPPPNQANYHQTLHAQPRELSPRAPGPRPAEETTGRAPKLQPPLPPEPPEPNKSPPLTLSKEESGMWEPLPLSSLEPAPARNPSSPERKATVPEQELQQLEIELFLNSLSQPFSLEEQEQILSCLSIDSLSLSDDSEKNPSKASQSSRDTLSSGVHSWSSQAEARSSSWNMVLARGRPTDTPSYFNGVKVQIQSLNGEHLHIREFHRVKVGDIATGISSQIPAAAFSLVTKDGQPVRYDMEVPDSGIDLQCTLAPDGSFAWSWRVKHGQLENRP
Sequence of PIK4CB (Q9UBF8 whole entry): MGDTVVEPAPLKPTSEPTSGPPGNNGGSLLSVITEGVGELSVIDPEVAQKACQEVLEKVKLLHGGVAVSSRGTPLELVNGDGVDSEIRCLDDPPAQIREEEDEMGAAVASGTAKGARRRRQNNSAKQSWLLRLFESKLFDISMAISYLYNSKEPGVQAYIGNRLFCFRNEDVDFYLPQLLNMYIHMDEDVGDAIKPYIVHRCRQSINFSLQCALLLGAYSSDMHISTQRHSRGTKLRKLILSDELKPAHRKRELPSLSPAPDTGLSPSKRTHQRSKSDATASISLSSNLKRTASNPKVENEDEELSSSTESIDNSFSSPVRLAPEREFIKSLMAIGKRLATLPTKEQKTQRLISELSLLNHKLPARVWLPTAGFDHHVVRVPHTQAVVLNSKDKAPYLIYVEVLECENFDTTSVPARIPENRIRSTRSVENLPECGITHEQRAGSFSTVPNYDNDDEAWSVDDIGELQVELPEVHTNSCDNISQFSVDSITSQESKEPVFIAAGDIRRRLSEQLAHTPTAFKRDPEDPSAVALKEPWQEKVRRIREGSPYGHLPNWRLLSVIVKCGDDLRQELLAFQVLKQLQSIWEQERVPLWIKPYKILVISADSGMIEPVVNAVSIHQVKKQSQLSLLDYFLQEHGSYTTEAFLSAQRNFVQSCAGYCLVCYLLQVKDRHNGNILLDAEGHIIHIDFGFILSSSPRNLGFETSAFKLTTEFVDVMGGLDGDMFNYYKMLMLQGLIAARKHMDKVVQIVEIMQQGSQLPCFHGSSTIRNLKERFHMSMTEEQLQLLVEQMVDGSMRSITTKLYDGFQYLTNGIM

Structure (SMILES): CNc1ncc2cc(-c3ccc(-c4cccc(C)n4)cc3Cl)c(=O)n(C[C@H]3OC[C@H](N)CO3)c2n1 [compound 6, G-5555]
- Percent Control (LZK): 100%
- Percent Control (PKAC-beta): 100%
- Percent Control (RIPK1): 100%
- Percent Control (NIK): 100%
- Percent Control (ICK): 100%
- Percent Control (TIE2): 87%
- Percent Control (PKN1): 100%
- Percent Control (STK39): 100%
- Percent Control (PNCK): 97%
- Percent Control (PIK4CB): 97%
- Percent Control (SRPK1): 94%
- Percent Control (DAPK2): 100%
- Percent Control (MINK): 77%
- Percent Control (MST1R): 73%
- Percent Control (PRKCQ): 81%
- Percent Control (TNK2): 92%
- Percent Control (ACVR2B): 100%
- Percent Control (ERBB2): 100%
- Percent Control (ERN1): 92%
- Percent Control (AURKB): 72%
- Percent Control (MELK): 51%
- Percent Control (IKK-beta): 93%
- Percent Control (EPHA3): 99%
- Percent Control (CSNK1G2): 100%
- Percent Control (FLT3(K663Q)): 100%
- Percent Control (IGF1R): 100%
- Percent Control (EPHB3): 100%
- Percent Control (BMPR2): 100%
- Percent Control (DMPK): 100%
- Percent Control (TRKB): 100%
- Percent Control (PIM3): 100%
- Percent Control (EPHA2): 100%

— article doi:10.1101/2021.04.08.439011v1 (biorxiv, 2021)
